This is an account of results in patent US20060004086A1, “Method of reducing Abeta42 and treating diseases” (Mayo Foundation for Medical Education and Research, priority 2000, published 2006).

Molecules are shown by their SMILES. Read-outs that look alike come from different tables or passages of the source.

Data set [1] has as its system Notch intramembrane cleavage. The experiment in a line: Notch intramembrane cleavage and NICD formation in HEK293 cells. The data set is classed as cell-based. Particulars: 500 μM; data not shown. From the text:
Two Notch-encoding vector constructs were used in examining Notch processing. These were a construct expressing a myc-tagged NH2-terminal truncated Notch-1 polypeptide (NotchΔEMV), and a construct expressing only the Notch intracellular cytoplasmic domain (NICD) (see Kopan et al. (1996) Proc Natl Acad Sci USA 93:1683-8). In the construct expressing a myc-tagged NH2-terminal truncated Notch-1 polypeptide, the start codon, a methionine at position 1726, was mutated to a valine to eliminate translation initiation.
Notch intramembrane cleavage and formation of NICD were analyzed in kidney HEK293 cells. The myc-tagged NotchΔEMV construct encoding a constitutively cleaved Notch variant was transiently transfected into HEK293 cells. […] Then they were pulse labeled with ^35S-methionine for thirty minutes and chased for two hours. Cell lysates were prepared and subjected to immunoprecipitation with monoclonal antibody 9E10. Immunoprecipitated proteins were subjected to SDS-PAGE and phosphor imaging analyses.

The conditions of data set [2]: plasma concentration of the drug; cited from earlier work.
Another data set has as its system Aβ levels in the brain. Conditions: long-term transgenic mouse studies; cited from earlier work.
The test system of data set [3] is Aβ42 secretion. The data set is described as follows: Aβ40/Aβ42 ELISA of culture supernatants, CHO cells expressing APP751 and PS-1 mutant M146L. The data set is classed as cell-based, Chinese hamster. Conditions: concentrations up to 500 μM. The protocol:
Cell cultures were maintained in standard cell culture media supplemented with 10% fetal bovine serum and 100 U/mL penicillin/streptomycin (Life Technologies Inc., Germany).
For analyses of Aβ secretion, APP processing, and notch cleavage, cells were cultured in serum-containing media and pretreated overnight with a specific NSAID. The next day, media were changed and cultures were treated with the same NSAID for another 24 hours.
Aβ was detected by sandwich enzyme-linked immunosorbent assay (ELISA) as described by Murphy et al. (2000) J Biol Chem 275:26277-84. Following NSAID treatment, culture supernatants were collected, and cell debris was removed by centrifugation. Complete protease inhibitor cocktail (Roche Molecular Biochemicals, IN, USA) was added to the media and Aβ40 and Aβ42 levels were quantified using end-specific Aβ ELISAs. All measurements were performed in duplicate.
Levels of Aβ40 and Aβ42 in culture supernatants were analyzed using ELISA. […] Aβ42/Aβ40 ratios and total Aβ levels (i.e., the sum of Aβ40 and Aβ42 values) were normalized to values obtained from DMSO-treated cells. Results shown were averages of two or three experiments performed in duplicate.
Aβ40 and Aβ42 levels in culture supernatants were analyzed using ELISA as described in Example 3. […] Aβ42/Aβ40 ratios and total Aβ levels were normalized to values obtained from ethanol-treated cells. Results shown were averages of two or three experiments, each performed in duplicate.

Data set [4] relates to brain Aβ42 levels in Tg2576 mice. The experiment in a line: Acute oral dosing of three-month-old Tg2576 mice, brain Aβ ELISA. The format is in vivo, mouse. Particulars: Tg2576 mice. How it is done:
NSAIDs were dissolved in an appropriate vehicle. Dimethyl sulfoxide (DMSO), ethanol, and ethyl acetate are some examples. The NSAID solution was mixed with Kool-Aid and administered orally using a medicine dropper. […] At two hours after the final doses were administered, animals were sacrificed, and SDS soluble Aβ40 and Aβ42 were analyzed using ELISA.
Three month old mice have high levels of soluble Aβ in the brain but no Aβ deposition (see Hsiao et al. (1996) Science 274:99-102). […] Brain levels of SDS-soluble Aβ40 and Aβ42 were measured using ELISA.
Compounds were administered orally.

In data set [5] the test system is Aβ42 secretion. The data set is described as follows: Primary in vitro screen, CHO-APP695NL,I,his cells, end-specific Aβ40 and Aβ42 ELISAs. The format is cell-based, Chinese hamster. Conditions: Cricetulus griseus, 6 h, six-hour culture supernatants. How it is done:
Aβ40 and Aβ42 levels in culture supernatants were determined for each time points using ELISA.
In a primary screen, the effects of NSAIDs on Aβ42 secretion by a CHO cell line that expressed APP(CHO-APP695NL,I,his) were examined. Duplicate cell cultures were treated with (a) a vehicle, (b) 10 μM of NSAID, or (c) 100 μM of NSAID.
To determine Aβ40 and Aβ42 levels, six-hour culture supernatants taken from cells grown in a single well of a twenty-four-well plate were used in end-specific Aβ40 and Aβ42 ELISAs (Suzuki, et al. (1994) Sci 264:[…]). Aβ40 and Aβ42 levels of cultures treated with NSAID were compared with those of cultures treated with the vehicle alone. […] NSAIDs that caused either selective reduction of Aβ42 levels or reduction in both Aβ40 and Aβ42 levels are subjected to a secondary screen.

Another data set relates to APP processing. The experiment in a line: Western blot of APP, APP CTFs and sAPP, CHO cells expressing APP751. The format is cell-based, Chinese hamster. Conditions: 500 μM; data not shown. From the text: Expression of holo-APP and APP C-terminal fragments (CTFs) was examined by Western blot analysis using antibody CT-15. APP secretion was examined by Western blotting using a mixture of 5A3/IG7 antibodies. APP turnover was examined by pulse labeling of CHO cells with 150 μCi [^35S]-methionine for fifteen minutes followed by a cold chase step for up to four hours. Cell lysates were immunoprecipitated with antibody CT-15, subjected to SDS-PAGE, and analyzed by phosphor imaging.
Cell lysates were prepared, and steady-state APP levels were examined using 4-12% gradient-gel electrophoresis and western blotting using the polyclonal antibody CT15.

The mark [6] stands for this setting: three month-old, 50 mg/kg/day orally for three days, SDS-soluble, mean ± SD.
[7] abbreviates: treatment for three days, 50 mg/kg/day.

As for `CC(C)Cc1ccc(C(C)C(=O)O)cc1` (stereo not shown) [Ibuprofen, ibuprofen], the “inhibition of Notch cleavage” value in data set [1] was “did not cause”. Also, in data set [2], the Plasma was 40 to 111 µM. For the same compound, the “Aβ levels in the brain, lower when treated than untreated” value with Aβ levels in the brain is “about 38%”. Also, the “total Aβ levels” value with Aβ42 secretion [3] is listed as “not significantly affected”. In addition, in data set [4] (setting [6]), the “Brain levels of Aβ40” value is recorded as 2620 ± 246 fmol/gm and the “Brain levels of Aβ42” value amounted to 734 ± 302 fmol/gm. Also, the “% Aβ42 in brain” value in data set [4] (three month-old, 50 mg/kg/day orally for three days, mean ± SD) was found to be 21.5 ± 7.7 %. In data set [4] (setting [7]), the “Aβ40 levels in the brain” value is listed as “no change” and the “reduction in Aβ42 levels in the brain” value is listed as “approximately 30%”. Besides, in the data set with Aβ42 secretion [5] (read-out: % Control % Aβ42), the activity at 10 µM is 82% and the activity at 100 µM came to 81%. Also, in the data set on Aβ42 secretion [5] (read-out: % Control Aβ40), the activity at 10 µM came to 102% and the activity at 100 µM amounted to 95%. Further, in the data set with Aβ42 secretion [5] (read-out: % Control Aβ42), the activity at 10 µM is 80% and the activity at 100 µM is 74%. Further, in the data set on APP processing, the “accumulation of APP-CTFs” value is recorded as “did not cause”.
